Assay [1] concerns MDA-MB-468 cells. The assay is described as follows: MTT viability, EJ1 in combination with pathway inhibitors or ROS scavenger. In kind it is cell-based. The note with it: MDA-MB-468, 20 μmol/l EJ1 plus inhibitor. As for the experimental part: (a) MDA-MB-468 cells were treated with either 20 μmol/l CP (A-D) or 20 μmol/l EJ1 (E-H) for 0 minutes (A, E), 15 minutes (B, F), 60 minutes (C, G), or 16 hours (D, H). Arrows indicate membrane blebs and arrowheads indicate intracellular vacuoles. (b) BxPC3 cells were serum starved overnight, then treated with 20 μmol/l EJ1 and 50 ng/ml Texas-Red-labeled EGF, and imaged for 30 minutes with an Olympus IX71 deconvolution microscope. Panels A-F are bright field images, D′-F′ are red channel images (Texas-Red-labeled EGF). Arrowheads indicate locations of EGF accumulation on membrane protrusions. (c) Diagram depicts Ca^2+/CaM-regulated signaling pathway, and inhibitors acting at different targets are indicated. (d) MDA-MB-468 cells were pretreated with 50 μmol/l W-13 (D-F), 10 μmol/l ML-7 (G-I), or 10 μmol/l Y-27632 (J-L) in complete medium at 37° C. for 30 minutes and then treated with vehicle, 20 μmol/l CP, or 20 μmol/l EJ1 in combination with W-13, ML-7, or Y-27632 in complete medium at 37° C. for 15 minutes. Images represent the bright field images. Arrows indicate membrane blebbing. (e) MDA-MB-468 cells were untreated (UNTX) or treated with water (Vehicle), 20 μmol/l EJ1, 10 μmol/l Y-27632, or 10 μmol/l ML-7 alone or EJ1 in combination with Y-27632 or ML-7, and the viability was assessed by the MTT assay. **P<0.01 (Student's t-test). Error bars, mean±SD. (f) MDA-MB-468 cells were either in serum-free medium (SF) or stimulated with 100 ng/ml EGF (EGF) and then incubated with water (Vehicle), 20 μmol/l CP, 20 μmol/l EJ1, 2 μmol/l ionomycin, 50 μmol/l W-13, 100 μmol/l KN-93, or EJ1 in combination with ionomycin for 15 minutes. Lysates were immunoblotted with antibodies as indicated. (g) Stable, neomycin-selected NIH3T3 cell lines were created, expressing either Rac1 wild-type (Rac1-WT) or Rac1 constitutively active mutant (Rac1-Q61L). Cells were treated with water (Vehicle), 20 μmol/l CP, or 20 μmol/l EJ1, and the viability was assessed by MTT. ***P<0.001 (Student's t-test). Error bars, mean±SD.
(a) MDA-MB-468 cells were incubated in serum-free media with 200 nmol/l MitoTracker Red CMXRos and 5 μg/ml Hoechst 33342 nuclear stain, followed by either 20 μmol/l CP (A-B′) or 20 μmol/l EJ1 (C-D′), and imaged at 0 minutes (A, A′; and C, C′) or at 5 minutes (B, B′; and D, D′). (b) MDA-MB-468 cells were incubated with 1 μmol/l JC-1, followed by 20 μmol/l CP, 20 μmol/l EJ1, or 50 μmol/l CCCP. Results were calculated as the ratio of the 514/590 nm to 514/529 nm fluorescences and the ratio for CP-treated sample was set as 1. *P<0.05, Student's t-test. Error bars, mean±SD. […] Cells were then sorted by flow cytometer and analyzed by Cellquest Pro 4.0 software. The results are expressed as the percentage of DCFH fluorescence-positive cells. *P<0.05, Student's t-test. […]

For assay [2], the system named is MDA-MB-468 cells. The assay is described as follows: Membrane blebbing / cell morphology, bright field imaging. It is filed as cell-based. Conditions: for inhibition of EJ1-induced membrane blebbing: 50 μmol/l W-13, 10 μmol/l ML-7, 10 μmol/l Y-27632 with 20 μmol/l EJ1. As to the method:
(a) MDA-MB-468 cells were treated with either 20 μmol/l CP (A-D) or 20 μmol/l EJ1 (E-H) for 0 minutes (A, E), 15 minutes (B, F), 60 minutes (C, G), or 16 hours (D, H). […] (b) BxPC3 cells were serum starved overnight, then treated with 20 μmol/l EJ1 and 50 ng/ml Texas-Red-labeled EGF, and imaged for 30 minutes with an Olympus IX71 deconvolution microscope. Panels A-F are bright field images, D′-F′ are red channel images (Texas-Red-labeled EGF). […] (c) Diagram depicts Ca^2+/CaM-regulated signaling pathway, and inhibitors acting at different targets are indicated. (d) MDA-MB-468 cells were pretreated with 50 μmol/l W-13 (D-F), 10 μmol/l ML-7 (G-I), or 10 μmol/l Y-27632 (J-L) in complete medium at 37° C. for 30 minutes and then treated with vehicle, 20 μmol/l CP, or 20 μmol/l EJ1 in combination with W-13, ML-7, or Y-27632 in complete medium at 37° C. for 15 minutes. Images represent the bright field images. […] Error bars, mean±SD. (f) MDA-MB-468 cells were either in serum-free medium (SF) or stimulated with 100 ng/ml EGF (EGF) and then incubated with water (Vehicle), 20 μmol/l CP, 20 μmol/l EJ1, 2 μmol/l ionomycin, 50 μmol/l W-13, 100 μmol/l KN-93, or EJ1 in combination with ionomycin for 15 minutes. Lysates were immunoblotted with antibodies as indicated. […] Error bars, mean±SD. (From Hart et al., 2013, Molecular Therapy 21(11):1996-2007, the disclosure of which is incorporated herein in its entirety.)
Ca^2+/CaM signaling regulates many different cellular events, such as membrane dynamics, cell survival, mitochondrial function, and motility. We began by evaluating whether EJ1 was affecting membrane dynamics by treating MDA-MB-468 cells with either CP (FIG. 8) or EJ1 (FIG. 8) and examining cell morphology. […] Ca^2+/CaM signaling regulates many different downstream pathways, such as CaMKII and MLCK. CaMKII regulates cell proliferation, whereas MLCK phosphorylates myosin light chain (MLC) and regulates actinomyosin reorganization during membrane blebbing (as depicted in FIG. 8). To investigate whether EJ1-induced membrane blebbing was through the MLCK pathway, MDA-MB-468 cells were treated with vehicle, CP, or EJ1 alone (A-C) or in combination with the CaM inhibitor W-13 or the MLC phosphorylation inhibitors ML-7 and Y-27632 (D-L).

Assay [3] deals with MDA-MB-468 cells. Conditions: for inhibitor effect on cell survival after three days of treatment: MDA-MB-468, 20 uM peptide (FIG. 1); for effect on cell viability (MTT): MDA-MB-468, 3 days of treatment (FIG. 6). As for the experimental part: Inhibitor peptides were evaluated on their ability to inhibit growth of triple-negative breast cancer cells MDA-MB-468 (20 uM peptide treatment). […] SEQ ID NO: 13 is […] SEQ ID NO: 14 is […] SEQ ID NO: 15 is […] SEQ ID NO: 16 is […] SEQ ID NO: 17 is […] SEQ ID NO: 18 is […] SEQ ID NO: 19 is […] SEQ ID NO: 20 is […] SEQ ID NO: 21 is […] SEQ ID NO: 22 is […] SEQ ID NO: 23 is […] SEQ ID NO: 24 is […] SEQ ID NO: 25 is […]
Peptide designations are indicated in the right column. Changes from EJ1 in EJ2-11 are denoted in the second column from the right. (d-j) Cell lines were treated daily with 20 μmol/l EJ1, 20 μmol/l CP, or vehicle (water) for 3 days unless otherwise noted, and cell viability was determined by the MTT assay. Growth rates for vehicle-treated cells were set to 100%, and CP and EJ1 rates were adjusted accordingly. *P<0.05, **P<0.01, ***P<0.001 (Student's t-test). Error bars, mean±SD. (From Hart et al., 2013, Molecular Therapy 21(11):1996-2007, the disclosure of which is incorporated herein in its entirety.)
To do this, we created cell-penetrating peptides to act as dominant-negative “decoys,” thereby inhibiting endogenous jxm interactions. Peptides specific for jxm subdomains were synthesized downstream of the protein transduction domain-4 (PTD4; FIG. 6). Next, the effect of peptide treatment on cell viability was analyzed on the breast cancer cell line MDA-MB-468 by MTT (3-[4,5-dimethylthiazol-2-yl]-2,5-diphenyl tetra-zolium bromide) analysis after 3 days of treatment.
Protein lysate preparation, immunoprecipitation, and western blotting were performed as described previously. For cross-linking, cells were first incubated according to manufacturer instructions with 3 μmol/l DMS, a membrane-permeable, noncleavable, cross-linking agent (Thermo Scientific, Waltham, Mass.). Cells were analyzed both by the MTT assay following manufacturer's instructions (Sigma) and using a U-Quant Spectrophotometer (Bio-TEK Instruments, Winooski, Vt.).

Assay [4] deals with patient-derived glioma lines (BT145, BT147, GB16, GB7, GB42). The assay is described as follows: Viability of patient-derived GBM cells. It is filed as cell-based. From the text:
FIG. 13A and FIG. 13B show treatment of patient-derived GBM cells with various EGFR inhibitor peptides.
EGFR is amplified or mutated in more than 40% of glioblastoma multiforme (GBM) tumors. Referring to FIG. 13-14, inhibitor peptides of the present invention were used to treat GBM cells and tumors.

No end group written: not given here.

For `Cn1cnc(=N)c2[nH]cnc21` [3-MA], in assay [1], the “effect of co-treatment on EJ1-induced loss of cell viability (MTT)” value is recorded as “not able to rescue”.

On to `COc1cc2ncnc(Nc3cccc(Cl)c3)c2cc1OC` [AG1478], for which the membrane blebbing result in assay [2] (EJ1 20 μmol/l, 15 minutes) is “No membrane blebbing was observed”.

As to `O=S(=O)(c1cccc2c(I)cccc12)N1CCCNCC1` [ML-7], the “inhibition of EJ1-induced membrane blebbing” value (“inhibition” for short) in assay [2] is on record as “completely inhibited”. The “effect of co-treatment on EJ1-induced loss of cell viability (MTT)” value in assay [1] is on record as “significantly reduce the effects of EJ1”.

Consider `NCCCCNS(=O)(=O)c1ccc2c(Cl)cccc2c1` [W-13], for which, in assay [2], the “inhibition” value was “completely inhibited”.

As to `C[C@@H](N)[C@H]1CC[C@H](C(=O)Nc2ccncc2)CC1` [Y-27632], the “inhibition” value in assay [2] is recorded as “completely inhibited”. The “effect of co-treatment on EJ1-induced loss of cell viability (MTT)” value in assay [1] is reported as “significantly reduce the effects of EJ1”.

For the molecule “YARAAARQARAFMRDRHIVRDRTLRDLLQERE (Artificial peptide sequence related to EGFR juxtamembrane sequence) [EJ10]”, in assay [3], the “inhibitor effect on cell survival after three days of treatment” value was “almost no inhibitor effect” and the “effect on cell viability (MTT)” value was “completely ablated the effects on viability”.

For YARAAARQARAFMRQRHIVRQRTLRQLLQERE [EJ11], the “effect on cell viability (MTT)” value in assay [3] is “only marginally blocked the antiproliferative effects of EJ1”.

In the case of “YARAAARQARAFMRRRHIVRKRTL (Artificial peptide sequence related to EGFR juxtamembrane sequence) [EJ2]”, the “effect on cell viability (MTT)” value in assay [3] was “partial reduction”.

Regarding “YARAAARQARAIVRKRTLRRLLQERE (Artificial peptide sequence related to EGFR juxtamembrane sequence) [EJ3]”, the “effect on cell viability (MTT)” value in assay [3] is “partial reduction”.

As to “YARAAARQARALLQERELVEPLT (Artificial peptide sequence related to EGFR juxtamembrane sequence) [EJ6]”, the “effect on cell viability (MTT)” value in assay [3] is recorded as “No antiproliferative effect”.

Turning to “YARAAARQARARDRHIVRDRTLRD (Artificial peptide sequence related to EGFR juxtamembrane sequence) [nlsCPv4]”, the “inhibitor effect on cell survival after three days of treatment” value in assay [3] is “almost no inhibitor effect”.

With “YARAAARQARARRRHIVRKRTLRR (Artificial peptide sequence related to EGFR juxtamembrane sequence) [EJ4]”, in assay [3], the “effect on cell viability (MTT)” value was “No antiproliferative effect”.

As to “YARAAARQARARTLRRLLQERE (Artificial peptide sequence related to EGFR juxtamembrane sequence) [EJ5]”, the “effect on cell viability (MTT)” value in assay [3] is “partial reduction”.

For “control peptide: control peptide compared to stapled EJ1 on patient-derived glioma lines (YARAAARQARAFMRDRHIVRDRTLRDLLQERE; Artificial peptide sequence related to EGFR juxtamembrane sequence) [reference compound]”, the “cell viability of patient-derived glioma lines” value in assay [4] (BT145 and BT147 (FIG. 13A)) is given as “no effect on cell viability”; in assay [4] (GB16, GB7, GB42 and BT147, 24 hr treatment (FIG. 13B)), “no effect on cell viability”.
